According to patent US7897637B2, “Methods of using flavonoids to enhance memory” (The Salk Institute for Biological Studies, priority 2006, dated 2011):
Entries after “also recorded” stand apart in the source; their conditions may differ.

Key:
PC12 cells = test: PC12 cell differentiation assay (neurite outgrowth); assay type: cell-based; details: for EC50 / Emax: Rattus norvegicus, PC-12, PC12 cells in N2 medium, 24 hours, neurites scored; for EC50: read-out: EC50 (μM), induction of PC12 cell differentiation; for Emax: read-out: Maximal Efficacy, induction of PC12 cell differentiation
Protocol: Four trihydroxyflavones (THF) and three dihydroxyflavones (DHF) which lack one or two, respectively, of the hydroxyl groups found in fisetin were tested for their ability to induce the differentiation of PC12 cells. Differentiation was assessed by scoring neurite outgrowth (Sagara et al., J. Neurochem., 90:1144-1155, 2004). […]
PC12 cells in N2 medium were treated with flavonoids for 24 hours at which time the cells were scored for the presence of neurites. PC12 cells produce neurites much more rapidly when treated in N2 medium than when treated in regular growth medium (Kimura et al., J. Cell Biol., 116:777-83, 1992). For each treatment, 100 cells in each of three separate fields were counted. Cells were scored positive if one or more neurites>1 cell body diameter in length were observed.

GSH = test: Total cellular GSH levels in HT22 cells; assay type: cell-based, mouse; details: 8 hours; for GSH levels in the presence of oxidative stress: 5 mM glutamate
Protocol: The effects of fisetin derivatives on cellular GSH levels was then determined. HT22 cells were untreated (Ct) or treated with 10 μM fisetin, 25 μM 3,3′-DHF, 25 μM 3,4′-DHF, 2.5 μM 3′,4′-DHF, 2.5 μM 3,3′,4′-THF, 25 μM 3,7,3′-THF, 25 μM 3,7,4′-THF or 10 μM 7,3′,4′-THF alone or in the presence of 5 mM glutamate. After 8 hours cellular levels of total GSH were determined as described in Example 4. The GSH level of the control sample (31.5±10 nmoles/mg protein) was taken as 100%.
Total intracellular GSH/GSSG was determined using whole cell lysates from untreated, glutamate treated, flavonoid treated and glutamate plus flavonoid treated cells as described (Maher and Hanneken, Invest. Opthalmol. Vis. Sci., 46:749-57, 2005, herein incorporated by reference as to the method) and normalized to total cellular protein.

Male C57Bl/6J mice = test: Object recognition task; assay type: in vivo; details: 60 minutes prior to training, vs vehicle
Protocol: The effect of fisetin, 3,3′,4′-THF, and apigenin (5,7,4′-THF) on memory was tested in mice using an object recognition task (Ennaceur and Delacour, Behav. Brain Res., 31:47-59, 1988). Among the alternatives available for testing memory, this assay has proven very effective for measuring CREB-dependent functions (Prickaerts et al., Neurosci., 113:351-61, 2002; Bourtchouladze et al., Proc. Natl. Acad. Sci. USA, 100:10518-22, 2003). In this test, mice are presented with two identical objects during the training period which they explore for a fixed time period. To test for memory, mice are presented one day later with two different objects, one of which was presented previously during the training and is thus familiar to the mice, and the other that is novel. The better a mouse remembers the familiar object, the more time it will spend exploring the novel object. To test the effects of fisetin, 3,3′,4′-THF, or apigenin (5,7,4′-THF) in this memory task, the respective compound was administered orally to the mice before the start of the training period. Rolipram, a phosphodiesterase inhibitor that potentiates memory in this assay (Bourtchouladze et al., Proc. Natl. Acad. Sci. USA, 100:10518-22, 2003), requires intraperitoneal injection and was used as a positive control.
Male C57Bl/6J mice (Jackson Laboratories) were used and the testing was done by PsychoGenics (Tarrytown, N.Y.). All mice were acclimated to the colony room for at least 2 weeks prior to testing and were tested at an average age of 8 weeks. Mice were randomly assigned across treatment groups with 10 mice in each group. For each dose tested, a 10× solution of fisetin was prepared in 95% ethanol and then diluted with 4 volumes polyethylene glycol 660 hydroxystearate (Solut HS15 from BASF) and 5 volumes phosphate buffered saline. The vehicle was contained the identical ratios of ethanol, Solut HS15 and phosphate buffered saline. All were administered orally 60 minutes prior to training at a volume of 10 ml/kg body weight. Rolipram was dissolved in 10% DMSO and administered intraperitoneally 20 minutes prior to training. The test was performed as previously described by Bourtchouladze et al. (Proc. Natl. Acad. Sci. USA, 100:10518-22, 2003). Briefly, on Day 1 mice were habituated to a circular open field arena for one hour in cage groups of four. Twenty-four (24) hours later, individual mice were placed back in the same arena which now contained two identical objects for a 15 minutes training trial. […] Each animal's test trial was recorded and the first 10 minutes of each session were scored. […] Data were analyzed by a one-way ANOVA followed by post-hoc comparisons with Fisher's test. […]

CREB = CREB phosphorylation in hippocampal slices (immunoblotting, densitometry); assay type: cell-based, rat; details: for CREB phosphoprotein signal normalized to total protein: 1 μM
Protocol: Western blots panels A and B) of hippocampal slices treated with (A) 1 μM fisetin or (B) pretreated for 30 minutes with either 50 μM PD98059 (PD) or 10 μM U0126 (U) before the addition of 1 μM fisetin for 5 minutes, which blots were probed with the indicated antibodies.
Hippocampal slices in artificial cerebral spinal fluid (ACSF) were treated with either 1 μM fisetin for 5-20 minutes or pretreated for 30 minutes with either 50 μM PD98059 (PD) or 10 μM U0126 (J) before the addition of 1 μM fisetin for 5 minutes. Equal amounts of protein were analyzed by SDS-PAGE and immunoblotting with antibodies to phospho-ERK and phospho-CRFB along with antibodies to the unphosphorylated forms of the proteins. The average phosphoprotein signal from the blots was quantified by densitometry and normalized to total protein was plotted±S.D.

cAMP = cAMP levels in hippocampal slices (Scintillation Proximity Assay); assay type: cell-based
Protocol: Hippocampal slices were treated with fisetin using the conditions where maximal stimulation of CREB phosphorylation and facilitation of LTP were observed. Briefly, hippocampal slices in ACSF were treated with 1 μM fisetin for 5 minutes (fisetin) or 3 μM rolipram for 30 minutes (rolipram) and then either immediately frozen or treated with […] forskolin for an additional 15 minutes (rolipram+forskolin; fisetin+forskolin) prior to freezing. Additional slices were treated only with 5 μM forskolin for 15 minutes (forskolin). Forskolin, an activator of adenylyl cyclase, and rolipram were used as positive controls. The levels of cAMP in the slices were measured using a Scintillation Proximity Assay and presented as pmole/mg protein±S.D.

protein kinase A = details: PC12 cells; Sagara et al. 2004; cited from earlier work

SMILES | EC50 (PC12 cells) | Emax (PC12 cells) | GSH levels in the presence of oxidative stress (GSH) | basal levels of GSH (GSH; flavonoid alone) | ability to induce differentiation (PC12 cells; PC12 cells) | differentiation of the PC12 cells (PC12 cells; concentration of 5 μM) | object recognition (Male C57Bl/6J mice; 25 mg/kg oral) | object recognition (Male C57Bl/6J mice; 10 mg/kg oral) | CREB phosphoprotein signal normalized to total protein (CREB; 5 min) | CREB phosphoprotein signal normalized to total protein (CREB; 10 min) | CREB phosphoprotein signal normalized to total protein (CREB; 20 min) | increase in CREB phosphorylation (CREB; hippocampal slices, fisetin) | effect on cAMP levels by itself (cAMP; 1 μM fisetin 5 minutes, 3 μM rolipram 30 minutes) | potentiation of the effect of forskolin on cAMP levels (cAMP; then 5 μM forskolin for 15 minutes) | activation of the cAMP target protein kinase A (protein kinase A)
O=c1cc(-c2ccc(O)c(O)c2)oc2ccccc12 [3′,4′-DHF, 3′,4′-dihydroxyflavone] | 10 µM | 40 to 50% | could not maintain GSH levels | raised the basal levels of GSH | – | – | – | – | – | – | – | – | – | – | –
O=c1c(O)c(-c2ccc(O)c(O)c2)oc2ccccc12 [3,3′,4′-THF, 3,3′,4′-trihydroxyflavone] | 2.5 µM | 80 to 90% | able to maintain GSH levels | – | most effective of those tested | > 80% | significantly increased object recognition | – | – | – | – | – | – | – | –
O=c1c(O)c(-c2ccc(O)c(O)c2)oc2cc(O)ccc12 [fisetin, 3,3′,4′,7-tetrahydroxyflavone] | 5 µM | 70 to 80% | – | – | – | – | significant effects | significant effects | 2.87±0.56 | 2.72±0.12 | 2.55±0.39 | ~3 fold | no effect; also recorded: does not increase cAMP levels | nor did it potentiate | does not result in the activation
